The record followed here is ChEMBL document CHEMBL1130499, “Synthesis of halogenated/nitrated flavone derivatives and evaluation of their affinity for the central benzodiazepine receptor” (Bioorg Med Chem Lett, 1997).

The assay addresses GABA-A receptor; anion channel. Briefly: Displacement of [3H]flunitrazepine binding from GABA-A central benzodiazepine receptor of rat cerebral cortical membrane. In general terms: Displacement assays read how much labelled ligand stays bound in the presence of the test substance.
`O=c1cc(-c2ccccc2[N+](=O)[O-])oc2ccc([N+](=O)[O-])cc12`: the Ki (commonly a measure of affinity in units of concentration, obtained from inhibition or displacement) is more than 10000 nM.
Compound `O=c1cc(-c2ccccc2)oc2ccc([N+](=O)[O-])cc12` came in with a Ki of 275 nM.
Regarding `O=c1cc(-c2cccc([N+](=O)[O-])c2)oc2ccccc12`, the Ki was found to be 285 nM.
As to `O=c1cc(-c2cccc([N+](=O)[O-])c2)oc2ccc([N+](=O)[O-])cc12`, affinity was put at a Ki of 26 nM.
`O=c1cc(-c2ccc(Br)cc2)oc2ccccc12` yielded a Ki of more than 20000 nM.
Then `O=c1cc(-c2ccccc2[N+](=O)[O-])oc2ccccc12`, with more than 20000 nM; and `O=c1cc(-c2cccc(Br)c2)oc2ccc(Br)cc12`, with 19 nM; and `O=c1cc(-c2ccc([N+](=O)[O-])cc2)oc2ccc(Br)cc12`, with 200 nM.
Regarding `O=c1cc(-c2cccc(Br)c2)oc2ccccc12`, the Ki was determined as 413 nM.
As for `O=c1cc(-c2cccc([N+](=O)[O-])c2)oc2ccc(F)cc12`, affinity was put at a Ki of 180 nM.
Then `O=c1cc(-c2cccc(Cl)c2)oc2ccccc12`, with 614 nM; and `O=c1cc(-c2ccccc2[N+](=O)[O-])oc2ccc(Br)cc12`, with 208 nM.
As to `O=c1cc(-c2cccc([N+](=O)[O-])c2)oc2ccc(Cl)cc12`, the Ki came out at 8 nM.
Take `O=c1c(Br)c(-c2cccc([N+](=O)[O-])c2)oc2ccccc12`: the Ki was more than 20000 nM.
As for `O=c1c(Br)c(-c2ccccc2)oc2ccc(Br)cc12`, the Ki was more than 75000 nM.
In turn, `O=c1cc(-c2ccccc2)oc2ccc(F)cc12` returned a Ki of 4500 nM.
For `O=c1c(Br)c(-c2ccccc2)oc2ccccc12` the value was more than 75000 nM; for `O=c1cc(-c2cc([N+](=O)[O-])cc([N+](=O)[O-])c2)oc2ccccc12`, more than 20000 nM; for `O=c1cc(-c2ccc([N+](=O)[O-])cc2)oc2ccc([N+](=O)[O-])cc12`, more than 10000 nM.
Consider `O=c1cc(-c2cccc(Br)c2)oc2ccc([N+](=O)[O-])cc12`, for which affinity was put at a Ki of 25 nM.
For `O=c1cc(-c2ccccc2)oc2ccc(Br)cc12` [6-BROMOFLAVONE] the value was 75 nM; for `O=c1cc(-c2ccccc2)oc2ccc(Cl)cc12` [6-CHLOROFLAVONE], 164 nM; for `O=c1cc(-c2ccccc2)oc2ccccc12` [FLAVONE], 1000 nM.
